The results in this text go back to ChEMBL document CHEMBL1909046, “DrugMatrix in vitro pharmacology data”.

Each structure is given as a SMILES string.

Vasopressin V1a receptor, sequence (P37288 whole entry): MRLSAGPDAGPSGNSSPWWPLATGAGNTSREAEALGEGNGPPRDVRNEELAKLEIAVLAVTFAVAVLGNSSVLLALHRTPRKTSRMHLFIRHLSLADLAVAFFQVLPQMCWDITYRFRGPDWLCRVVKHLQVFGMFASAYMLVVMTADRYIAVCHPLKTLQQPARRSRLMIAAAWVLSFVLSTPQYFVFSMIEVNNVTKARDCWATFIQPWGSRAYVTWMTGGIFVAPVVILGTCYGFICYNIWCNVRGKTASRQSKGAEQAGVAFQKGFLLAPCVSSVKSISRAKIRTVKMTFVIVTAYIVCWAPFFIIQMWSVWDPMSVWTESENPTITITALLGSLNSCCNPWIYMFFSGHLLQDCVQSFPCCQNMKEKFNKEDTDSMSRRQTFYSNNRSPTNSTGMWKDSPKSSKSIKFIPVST

One assay addresses T1, Glucocorticoid receptor (Homo sapiens, UniProt P04150).
T1 sequence (P04150 whole entry): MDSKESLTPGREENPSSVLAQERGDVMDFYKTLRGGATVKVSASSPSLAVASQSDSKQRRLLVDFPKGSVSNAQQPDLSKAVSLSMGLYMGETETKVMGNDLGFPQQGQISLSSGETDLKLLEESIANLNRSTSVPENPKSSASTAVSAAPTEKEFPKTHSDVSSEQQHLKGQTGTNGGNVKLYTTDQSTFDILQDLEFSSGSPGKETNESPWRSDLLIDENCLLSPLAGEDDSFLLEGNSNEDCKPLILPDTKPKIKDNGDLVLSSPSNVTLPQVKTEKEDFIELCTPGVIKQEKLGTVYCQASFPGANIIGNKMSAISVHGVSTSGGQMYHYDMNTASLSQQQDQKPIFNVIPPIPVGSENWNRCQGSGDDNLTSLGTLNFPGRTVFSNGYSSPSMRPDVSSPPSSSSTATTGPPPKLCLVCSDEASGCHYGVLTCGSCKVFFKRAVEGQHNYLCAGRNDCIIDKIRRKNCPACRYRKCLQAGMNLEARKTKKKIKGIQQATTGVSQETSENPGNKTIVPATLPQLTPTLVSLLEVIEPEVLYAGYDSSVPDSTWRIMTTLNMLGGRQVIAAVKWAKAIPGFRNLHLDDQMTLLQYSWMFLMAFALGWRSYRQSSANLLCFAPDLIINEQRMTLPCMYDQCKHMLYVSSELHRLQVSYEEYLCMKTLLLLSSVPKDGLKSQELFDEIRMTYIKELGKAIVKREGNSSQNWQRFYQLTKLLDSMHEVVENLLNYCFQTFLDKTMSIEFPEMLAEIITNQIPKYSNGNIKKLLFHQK
Conditions: hela s3.
As for `Nn1nnc2ccccc21`, the IC50 entry was “Not Active”.
In the case of `CC[C@]1(O)CC[C@H]2[C@@H]3CCC4=CCCC[C@@H]4[C@H]3CC[C@@]21C`, the IC50 entry is “Not Active”.
Turning to `N[C@@H](Cc1ccc(F)cc1)C(=O)O`, the IC50 entry was “Not Active”.
The same measure, in the same setting: the entry for `CCOC(=O)[C@H](CCc1ccccc1)N[C@@H](C)C(=O)N1Cc2ccccc2C[C@H]1C(=O)O` is “Not Active”.
Take `O=C(c1ccccc1Cl)N1CCC(Cc2ccccc2)CC1`: the IC50 entry is on record as “Not Active”.
Turning to `CCOC(=O)[C@H](CCc1ccccc1)N[C@@H](C)C(=O)N1CCC[C@H]1C(=O)O`, the IC50 result was “Not Active”.
As to `Clc1cc2c(cc1Cl)Oc1cc(Cl)c(Cl)cc1O2` [2,3,7,8-TETRACHLORODIBENZO-P-DIOXIN], the IC50 result was “Not Active”.

For the next assay, the target named is Melanocortin receptor 3 (Homo sapiens, UniProt P41968). The format is cell membranes, Membrane. The note with it: hek293. Also: in other assays of this panel Not Active means under 50% inhibition at 10 µM.
Melanocortin receptor 3, sequence (P41968 whole entry): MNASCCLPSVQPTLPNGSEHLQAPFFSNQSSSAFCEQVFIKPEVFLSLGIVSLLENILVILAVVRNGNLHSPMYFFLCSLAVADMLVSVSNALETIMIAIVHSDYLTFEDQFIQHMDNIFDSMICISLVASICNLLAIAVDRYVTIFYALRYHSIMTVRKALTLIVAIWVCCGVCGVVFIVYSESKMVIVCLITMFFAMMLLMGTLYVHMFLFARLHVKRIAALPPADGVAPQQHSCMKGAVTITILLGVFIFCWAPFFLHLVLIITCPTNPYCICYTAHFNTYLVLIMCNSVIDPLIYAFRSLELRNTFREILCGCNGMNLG
As to `Nn1nnc2ccccc21`, the IC50 result was “Not Active”.
`CC[C@]1(O)CC[C@H]2[C@@H]3CCC4=CCCC[C@@H]4[C@H]3CC[C@@]21C`: the IC50 result is “Not Active”.
On to `N[C@@H](Cc1ccc(F)cc1)C(=O)O`, for which the IC50 entry is recorded as “Not Active”.
As for `CCOC(=O)[C@H](CCc1ccccc1)N[C@@H](C)C(=O)N1Cc2ccccc2C[C@H]1C(=O)O`, the IC50 entry is “Not Active”.
For `O=C(c1ccccc1Cl)N1CCC(Cc2ccccc2)CC1`, the IC50 result is recorded as “Not Active”.
Consider `CCOC(=O)[C@H](CCc1ccccc1)N[C@@H](C)C(=O)N1CCC[C@H]1C(=O)O`, for which the IC50 entry is “Not Active”.
Take `Clc1cc2c(cc1Cl)Oc1cc(Cl)c(Cl)cc1O2` [2,3,7,8-TETRACHLORODIBENZO-P-DIOXIN]: the IC50 result was “Not Active”.

Another assay has as its target T2, Adenosine receptor A1 (Homo sapiens, UniProt P30542).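 Also: radioligand binding assay at the adenosine A1 receptor, with DPCPX serving as the labelled ligand; in other assays of this panel Not Active means under 50% inhibition at 10 µM.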
T2 sequence (P30542 whole entry): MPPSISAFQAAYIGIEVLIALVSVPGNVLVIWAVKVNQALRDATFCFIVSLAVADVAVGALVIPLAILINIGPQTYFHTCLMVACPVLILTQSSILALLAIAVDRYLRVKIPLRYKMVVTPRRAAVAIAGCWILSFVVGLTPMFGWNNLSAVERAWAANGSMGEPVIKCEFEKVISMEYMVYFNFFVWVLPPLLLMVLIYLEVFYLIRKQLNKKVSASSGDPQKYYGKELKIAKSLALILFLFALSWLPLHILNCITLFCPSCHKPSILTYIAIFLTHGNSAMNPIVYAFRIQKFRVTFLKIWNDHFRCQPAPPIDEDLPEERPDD
The format is cell membranes, CHO, Membrane. Conditions: cho.
Take `Nn1nnc2ccccc21`: the IC50 entry is “Not Active”.
Take `CC[C@]1(O)CC[C@H]2[C@@H]3CCC4=CCCC[C@@H]4[C@H]3CC[C@@]21C`: the IC50 entry is given as “Not Active”.
Consider `N[C@@H](Cc1ccc(F)cc1)C(=O)O`, for which the IC50 result is listed as “Not Active”.
Take `CCOC(=O)[C@H](CCc1ccccc1)N[C@@H](C)C(=O)N1Cc2ccccc2C[C@H]1C(=O)O`: the IC50 entry is reported as “Not Active”.
On to `O=C(c1ccccc1Cl)N1CCC(Cc2ccccc2)CC1`, for which the IC50 entry was “Not Active”.
`CCOC(=O)[C@H](CCc1ccccc1)N[C@@H](C)C(=O)N1CCC[C@H]1C(=O)O`: the IC50 entry is “Not Active”.
The same measure, in the same setting: in the case of `Clc1cc2c(cc1Cl)Oc1cc(Cl)c(Cl)cc1O2` [2,3,7,8-TETRACHLORODIBENZO-P-DIOXIN] it was “Not Active”.

Tested on in the next assay: not listed separately
As to the kind of experiment: DRUGMATRIX: beta-Lactamase enzyme inhibition (substrate: Nitrocefin). Conditions: Not Active = under 50% inhibition at 10 µM. Also noted: species or system Bacillus cereus.
As for `Nn1nnc2ccccc21`, the IC50 result is recorded as “Not Active” and the Ki entry is recorded as “Not Active”.
As to `CC[C@]1(O)CC[C@H]2[C@@H]3CCC4=CCCC[C@@H]4[C@H]3CC[C@@]21C`, the IC50 entry is on record as “Not Active” and the Ki result is “Not Active”.
Consider `N[C@@H](Cc1ccc(F)cc1)C(=O)O`, for which the IC50 entry is listed as “Not Active” and the Ki entry is “Not Active”.
Consider `CCOC(=O)[C@H](CCc1ccccc1)N[C@@H](C)C(=O)N1Cc2ccccc2C[C@H]1C(=O)O`, for which the IC50 result is reported as “Not Active” and the Ki result is “Not Active”.
As for `O=C(c1ccccc1Cl)N1CCC(Cc2ccccc2)CC1`, the IC50 result is recorded as “Not Active” and the Ki result is reported as “Not Active”.
Regarding `CCOC(=O)[C@H](CCc1ccccc1)N[C@@H](C)C(=O)N1CCC[C@H]1C(=O)O`, the IC50 entry is given as “Not Active” and the Ki result was “Not Active”.
Consider `Clc1cc2c(cc1Cl)Oc1cc(Cl)c(Cl)cc1O2` [2,3,7,8-TETRACHLORODIBENZO-P-DIOXIN], for which the IC50 entry is recorded as “Not Active” and the Ki result was “Not Active”.

For a further assay, the target named is T3, Cholecystokinin receptor type A (Homo sapiens, UniProt P32238). Also: in other assays of this panel Not Active means under 50% inhibition at 10 µM.
T3 sequence (P32238 whole entry): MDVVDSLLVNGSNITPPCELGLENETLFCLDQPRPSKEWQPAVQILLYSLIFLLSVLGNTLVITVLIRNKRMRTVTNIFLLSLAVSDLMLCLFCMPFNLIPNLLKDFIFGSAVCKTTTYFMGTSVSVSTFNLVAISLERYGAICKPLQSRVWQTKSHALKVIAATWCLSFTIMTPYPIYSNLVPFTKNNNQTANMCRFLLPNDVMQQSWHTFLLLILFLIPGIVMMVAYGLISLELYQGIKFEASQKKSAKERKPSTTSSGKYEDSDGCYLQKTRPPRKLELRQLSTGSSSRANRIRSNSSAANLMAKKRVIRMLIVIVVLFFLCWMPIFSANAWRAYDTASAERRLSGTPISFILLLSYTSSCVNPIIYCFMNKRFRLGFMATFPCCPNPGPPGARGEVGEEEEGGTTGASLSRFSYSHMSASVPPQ
The format is cell membranes, Membrane. Conditions: 1321-n1.
Consider `Nn1nnc2ccccc21`, for which the IC50 entry is given as “Not Active”.
Turning to `CC[C@]1(O)CC[C@H]2[C@@H]3CCC4=CCCC[C@@H]4[C@H]3CC[C@@]21C`, the IC50 result is listed as “Not Active”.
As for `N[C@@H](Cc1ccc(F)cc1)C(=O)O`, the IC50 result was “Not Active”.
Turning to `CCOC(=O)[C@H](CCc1ccccc1)N[C@@H](C)C(=O)N1Cc2ccccc2C[C@H]1C(=O)O`, the IC50 result is on record as “Not Active”.
For the molecule `O=C(c1ccccc1Cl)N1CCC(Cc2ccccc2)CC1`, the IC50 entry is “Not Active”.
Same read-out and setting: in the case of `CCOC(=O)[C@H](CCc1ccccc1)N[C@@H](C)C(=O)N1CCC[C@H]1C(=O)O` it was “Not Active”; in that of `Clc1cc2c(cc1Cl)Oc1cc(Cl)c(Cl)cc1O2` [2,3,7,8-TETRACHLORODIBENZO-P-DIOXIN], “Not Active”.

The next assay has as its target T4, Caspase-1 (Homo sapiens, UniProt P29466).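 Also: Caspase-1 enzyme inhibition assay with a peptide substrate; in other assays of this panel Not Active means under 50% inhibition at 10 µM.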
T4 sequence (P29466 whole entry): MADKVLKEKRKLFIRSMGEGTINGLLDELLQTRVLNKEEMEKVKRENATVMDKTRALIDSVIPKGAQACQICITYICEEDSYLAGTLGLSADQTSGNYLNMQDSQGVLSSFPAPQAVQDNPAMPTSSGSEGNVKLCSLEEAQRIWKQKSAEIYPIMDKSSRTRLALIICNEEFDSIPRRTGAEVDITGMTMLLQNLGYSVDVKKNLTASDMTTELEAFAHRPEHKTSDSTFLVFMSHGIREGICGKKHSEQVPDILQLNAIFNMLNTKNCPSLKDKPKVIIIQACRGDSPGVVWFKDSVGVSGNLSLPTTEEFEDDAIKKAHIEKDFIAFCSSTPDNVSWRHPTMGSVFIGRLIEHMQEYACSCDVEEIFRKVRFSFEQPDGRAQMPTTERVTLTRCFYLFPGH
On the set-up: species or system Escherichia coli.
Settings: not given
As to `Nn1nnc2ccccc21`, the IC50 entry is given as “Not Active”.
With `CC[C@]1(O)CC[C@H]2[C@@H]3CCC4=CCCC[C@@H]4[C@H]3CC[C@@]21C`, the IC50 result is recorded as “Not Active”.
For `N[C@@H](Cc1ccc(F)cc1)C(=O)O`, the IC50 result was “Not Active”.
Same read-out and setting: in the case of `CCOC(=O)[C@H](CCc1ccccc1)N[C@@H](C)C(=O)N1Cc2ccccc2C[C@H]1C(=O)O` it was “Not Active”; in that of `O=C(c1ccccc1Cl)N1CCC(Cc2ccccc2)CC1`, “Not Active”; in that of `CCOC(=O)[C@H](CCc1ccccc1)N[C@@H](C)C(=O)N1CCC[C@H]1C(=O)O`, “Not Active”.
Turning to `Clc1cc2c(cc1Cl)Oc1cc(Cl)c(Cl)cc1O2` [2,3,7,8-TETRACHLORODIBENZO-P-DIOXIN], the IC50 entry was “Not Active”.

Tested on in another assay: not listed separately
As to the kind of experiment: DRUGMATRIX: Phosphodiesterase PDE4 enzyme inhibition (substrate: [3H]cAMP + cAMP). Conditions: u-937; Not Active = under 50% inhibition at 10 µM.
Consider `Nn1nnc2ccccc21`, for which the IC50 result is on record as “Not Active” and the Ki entry is reported as “Not Active”.
Turning to `CC[C@]1(O)CC[C@H]2[C@@H]3CCC4=CCCC[C@@H]4[C@H]3CC[C@@]21C`, the IC50 entry is listed as “Not Active” and the Ki result was “Not Active”.
As to `N[C@@H](Cc1ccc(F)cc1)C(=O)O`, the IC50 result is “Not Active” and the Ki entry is “Not Active”.
As to `CCOC(=O)[C@H](CCc1ccccc1)N[C@@H](C)C(=O)N1Cc2ccccc2C[C@H]1C(=O)O`, the IC50 entry was “Not Active” and the Ki entry is listed as “Not Active”.
On to `O=C(c1ccccc1Cl)N1CCC(Cc2ccccc2)CC1`, for which the IC50 result was “Not Active” and the Ki entry is recorded as “Not Active”.
In the case of `CCOC(=O)[C@H](CCc1ccccc1)N[C@@H](C)C(=O)N1CCC[C@H]1C(=O)O`, the IC50 result was “Not Active” and the Ki result is reported as “Not Active”.
Regarding `Clc1cc2c(cc1Cl)Oc1cc(Cl)c(Cl)cc1O2` [2,3,7,8-TETRACHLORODIBENZO-P-DIOXIN], the IC50 result is recorded as “Not Active” and the Ki entry is listed as “Not Active”.

Another assay has as its target Vasopressin V1a receptor (Homo sapiens, UniProt P37288). The format is cell membranes, Membrane. The note with it: hek293. Also: in other assays of this panel Not Active means under 50% inhibition at 10 µM.
In the case of `Nn1nnc2ccccc21`, the IC50 entry is on record as “Not Active”.
Consider `CC[C@]1(O)CC[C@H]2[C@@H]3CCC4=CCCC[C@@H]4[C@H]3CC[C@@]21C`, for which the IC50 result is on record as “Not Active”.
On the same count and under the same terms, the entry for `N[C@@H](Cc1ccc(F)cc1)C(=O)O` is “Not Active”; for `CCOC(=O)[C@H](CCc1ccccc1)N[C@@H](C)C(=O)N1Cc2ccccc2C[C@H]1C(=O)O` it is “Not Active”.
In the case of `O=C(c1ccccc1Cl)N1CCC(Cc2ccccc2)CC1`, the IC50 result was “Not Active”.
In the case of `CCOC(=O)[C@H](CCc1ccccc1)N[C@@H](C)C(=O)N1CCC[C@H]1C(=O)O`, the IC50 entry is “Not Active”.
On to `Clc1cc2c(cc1Cl)Oc1cc(Cl)c(Cl)cc1O2` [2,3,7,8-TETRACHLORODIBENZO-P-DIOXIN], for which the IC50 result is recorded as “Not Active”.
